Source: patent publication US8697720B2 (Crestone, Inc., priority 2006, dated 2014)

Columns and labels:
[1] = test system: C. difficile strain ATCC43255; assay: Toxin A production in high cell density stationary phase C. difficile cultures (ELIFA); type: cell-based; details: 4 day old stationary phase cultures, toxin A by ELIFA
Experimental: C. difficile strain ATCC43255 was grown and maintained anaerobically on CDC anaerobe agar (Remel, Lenexa, Kans.). To test the effect of antibacterial agents on growth, cells were grown anaerobically for 40 h at 35° C. in 96-well brain heart infusion (BHI) broth cultures, with an initial inoculum of 10^6 CFU/mL. To test the effect of antibacterial agents on toxin production at high C. difficile cell densities, the cells were grown anaerobically for 24 h at 35° C. in 96-well brain heart infusion (BHI) broth cultures. Spent medium was then replaced with fresh broth containing MetRS inhibitors and control agents at a concentration range of 0.015-16 μg/mL. After 4 days, growth and cell viability were monitored by optical density measurements at 595 nm and by culture on CDC anaerobe agar, respectively. Culture supernatants were collected, and toxin A was detected by ELIFA (enzyme-linked immuno-flow assay) using an anti toxin A monoclonal antibody (Novus Biologicals, Centennial, Colo.).

C. difficile = assay: C. difficile-infected hamster survival study; type: in vivo
Experimental: Animal studies were performed to determine the efficacy of MetRS inhibitors for treating C. difficile-infections. The MetRS inhibitors tested were 5-[3-((R)-6,8-Dibromo-chroman-4-ylamino)-propylamino]-4H-thieno[3,2-b]pyridine-7-one (both racemic mixture and the R enantiomer), 5-[3-((R)-8-Bromo-6-chloro-chroman-4-ylamino)-propylamino]-4H-thieno[3,2-b]pyridin-7-one, and 2-(3-{3,5-Dibromo-2-[2-(4-methyl-thiazol-5-yl)-ethoxy]-benzylamino}-propylamino)-1H-quinolin-4-one.
Results were compared to C. difficile-infected hamsters treated with the conventional antibiotic, vancomycin. Infected hamsters were treated with either a solution or suspension of a MetRS inhibitor at 5 to 50 mg/kg or vancomycin at 2.5, 5 or 25 mg/kg. There were eight hamsters per group with the final endpoint of the experiment being survival. Expired hamsters were examined for GI condition.

Cc1ncsc1CCOc1c(Br)cc(Br)cc1CNCCCNc1cc(=O)c2sccc2[nH]1
concentrations that inhibited toxin production [1]: 0.25 µg/mL

O=c1cc(NCCCNC2CCOc3c(Br)cc(Br)cc32)[nH]c2ccsc12 (stereo not drawn) [5-[3-(6,8-Dibromo-chroman-4-ylamino)-propylamino]-4H-thieno[3,2-b]pyridin-7-one]
concentrations that inhibited toxin production [1]: 0.25 µg/mL

Cl.Cl.Cl.O=c1cc(NCCCNC2CCNc3c(Br)cc(Br)cc32)[nH]c2ccsc12 (stereo not drawn) [5-[3-(6,8-Dibromo-1,2,3,4-tetrahydro-quinolin-4-ylamino)-propylamino]-4H-thieno[3,2-b]pyridin-7-one tri-hydrochloride]
concentrations that inhibited toxin production [1]: 0.25 µg/mL

O=c1cc(NCCCN[C@@H]2CCOc3c(Br)cc(Br)cc32)[nH]c2ccsc12 [5-[3-((R)-6,8-Dibromo-chroman-4-ylamino)-propylamino]-4H-thieno[3,2-b]pyridine-7-one]
survival of infected hamsters (C. difficile; MetRS inhibitor at 5 to 50 mg/kg, untreated controls died within 3-4 days): best efficacy

CN[C@H](CC(C)C)C(=O)N[C@H]1C(=O)N[C@@H](CC(N)=O)C(=O)N[C@H]2C(=O)N[C@H]3C(=O)N[C@H](C(=O)N[C@H](C(=O)O)c4cc(O)cc(O)c4-c4cc3ccc4O)[C@H](O)c3ccc(c(Cl)c3)Oc3cc2cc(c3O[C@@H]2O[C@H](CO)[C@@H](O)[C@H](O)[C@H]2O[C@H]2C[C@](C)(N)[C@H](O)[C@H](C)O2)Oc2ccc(cc2Cl)[C@H]1O [vancomycin, reference compound]
survival with vancomycin (C. difficile; Day 28, vancomycin at 2.5, 5 or 25 mg/kg): 0-10%

Cl.Cl.O=c1cc(NCCCN[C@@H]2CCOc3c(Br)cc(Br)cc32)[nH]c2ccsc12 [R-(+)-5-[3-(6,8-Dibromo-chroman-4-ylamino)-propylamino]-4H-thieno[3,2-b]pyridin-7-one di-hydrochloride]
concentrations that inhibited toxin production [1]: 0.25 µg/mL
